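Briefly, cells in 96-well plates were exposed to five compound concentrations for 48 h, and endpoints were estimated by linear interpolation. GI50 = concentration required for 50% inhibition of growth.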 Activity calls are given as the source filed them. No stated cut-off is given here; in the data, active = GI50 up to about 1.1 µM and inactive = higher.
Tests used:
Test in all cases: NCI-60 cell line screen, 48 h
SNB-78 = system: SNB-78
SNB-19 = system: SNB-19
SN12C = system: SN12C
HCC 2998 = system: HCC 2998
SK-MEL-28 = system: SK-MEL-28
UO-31 = system: UO-31
UACC-257 = system: UACC-257
CCRF-CEM = system: CCRF-CEM
NCI-H460 = system: NCI-H460
K562 = system: K562
CAKI-1 = system: CAKI-1
SK-MEL-2 = system: SK-MEL-2
ACHN = system: ACHN
KM-20L2 = system: KM-20L2
EKVX = system: EKVX
SF-268 = system: SF-268
A549 = system: A549
RPMI-8226 = system: RPMI-8226
OVCAR-4 = system: OVCAR-4
TK-10 = system: TK-10
LOX IMVI = system: LOX IMVI
Malme-3M = system: Malme-3M
COLO 205 = system: COLO 205
KM12 = system: KM12
MOLT-4 = system: MOLT-4
M14 = system: M14
DMS-273 = system: DMS-273
SR = system: SR
LXFL 529 = system: LXFL 529
U-251 = system: U-251
OVCAR-5 = system: OVCAR-5
HT-29 = system: HT-29
UACC-62 = system: UACC-62
HCT-15 = system: HCT-15
M19-MEL = system: M19-MEL
DMS-114 = system: DMS-114
786-0 = system: 786-0
HCT-116 = system: HCT-116
SW-620 = system: SW-620
SK-OV-3 = system: SK-OV-3
NCI-H522 = system: NCI-H522
HOP-62 = system: HOP-62
XF498 = system: XF498
OVCAR-8 = system: OVCAR-8
SF-295 = system: SF-295
SNB-75 = system: SNB-75
NCI-H23 = system: NCI-H23
NCI-H226 = system: NCI-H226
RXF 393 = system: RXF 393
OVCAR-3 = system: OVCAR-3
HOP-18 = system: HOP-18
IGROV-1 = system: IGROV-1
DLD-1 = system: DLD-1
HL-60 = system: HL-60
SF-539 = system: SF-539
A498 = system: A498
SK-MEL-5 = system: SK-MEL-5
HOP-92 = system: HOP-92

CCOC(=O)C1(C#N)C(c2ccccc2)CC(O)(c2ccc([N+](=O)[O-])cc2)C(C(=O)c2ccc([N+](=O)[O-])cc2)C1c1ccccc1 (stereo unspecified)
GI50 (SNB-78): > 100 µM (inactive)
GI50 (SNB-19): 32.2 µM (inactive)
GI50 (SN12C): > 100 µM (inactive)
GI50 (HCC 2998): > 100 µM (inactive)
GI50 (SK-MEL-28): > 100 µM (inactive)
GI50 (UO-31): > 100 µM (inactive)
GI50 (UACC-257): > 100 µM (inactive)
GI50 (CCRF-CEM): > 100 µM (inactive)
GI50 (NCI-H460): > 100 µM (inactive)
GI50 (K562): > 100 µM (inactive)
GI50 (CAKI-1): > 100 µM (inactive)
GI50 (SK-MEL-2): > 100 µM (inactive)
GI50 (ACHN): > 100 µM (inactive)
GI50 (KM-20L2): > 100 µM (inactive)
GI50 (EKVX): > 100 µM (inactive)
GI50 (SF-268): > 100 µM (inactive)
GI50 (A549): > 100 µM (inactive)
GI50 (RPMI-8226): > 100 µM (inactive)
GI50 (OVCAR-4): > 100 µM (inactive)
GI50 (TK-10): > 100 µM (inactive)
GI50 (LOX IMVI): > 100 µM (inactive)
GI50 (Malme-3M): > 100 µM (inactive)
GI50 (COLO 205): > 100 µM (inactive)
GI50 (KM12): > 100 µM (inactive)
GI50 (MOLT-4): > 100 µM (inactive)
GI50 (M14): > 100 µM (inactive)
GI50 (DMS-273): > 100 µM (inactive)
GI50 (SR): > 100 µM (inactive)
GI50 (LXFL 529): > 100 µM (inactive)
GI50 (U-251): > 100 µM (inactive)
GI50 (OVCAR-5): > 100 µM (inactive)
GI50 (HT-29): > 100 µM (inactive)
GI50 (UACC-62): > 100 µM (inactive)
GI50 (HCT-15): > 100 µM
GI50 (M19-MEL): > 100 µM (inactive)
GI50 (DMS-114): > 100 µM (inactive)
GI50 (786-0): > 100 µM (inactive)
GI50 (HCT-116): > 100 µM (inactive)
GI50 (SW-620): > 100 µM (inactive)
GI50 (SK-OV-3): > 100 µM (inactive)
GI50 (NCI-H522): 34 µM (inactive)
GI50 (HOP-62): > 100 µM (inactive)
GI50 (XF498): > 100 µM (inactive)
GI50 (OVCAR-8): > 100 µM (inactive)
GI50 (SF-295): > 100 µM (inactive)
GI50 (SNB-75): 21 µM (inactive)
GI50 (NCI-H23): 42.2 µM (inactive)
GI50 (NCI-H226): > 100 µM (inactive)
GI50 (RXF 393): 15.5 µM (inactive)
GI50 (OVCAR-3): > 100 µM (inactive)
GI50 (HOP-18): 29.9 µM (inactive)
GI50 (IGROV-1): > 100 µM (inactive)
GI50 (DLD-1): > 100 µM (inactive)
GI50 (HL-60): > 100 µM (inactive)

Cc1cccc(C)c1NC(=O)CCC(=O)CC(=O)C(C)C
GI50 (SNB-78): > 100 µM (inactive)
GI50 (SNB-19): > 100 µM (inactive)
GI50 (SN12C): > 100 µM (inactive)
GI50 (HCC 2998): > 100 µM (inactive)
GI50 (SF-539): > 100 µM (inactive)
GI50 (SK-MEL-28): > 100 µM (inactive)
GI50 (UO-31): > 100 µM (inactive)
GI50 (UACC-257): > 100 µM (inactive)
GI50 (CCRF-CEM): > 100 µM (inactive)
GI50 (NCI-H460): > 100 µM (inactive)
GI50 (K562): > 100 µM (inactive)
GI50 (CAKI-1): > 100 µM (inactive)
GI50 (SK-MEL-2): > 100 µM (inactive)
GI50 (ACHN): > 100 µM (inactive)
GI50 (KM-20L2): > 100 µM (inactive)
GI50 (EKVX): > 100 µM (inactive)
GI50 (SF-268): > 100 µM (inactive)
GI50 (A498): > 100 µM (inactive)
GI50 (A549): > 100 µM (inactive)
GI50 (RPMI-8226): > 100 µM (inactive)
GI50 (SK-MEL-5): > 100 µM (inactive)
GI50 (OVCAR-4): > 100 µM (inactive)
GI50 (TK-10): > 100 µM (inactive)
GI50 (Malme-3M): > 100 µM (inactive)
GI50 (COLO 205): > 100 µM (inactive)
GI50 (KM12): > 100 µM (inactive)
GI50 (MOLT-4): > 100 µM (inactive)
GI50 (M14): > 100 µM (inactive)
GI50 (DMS-273): > 100 µM (inactive)
GI50 (SR): > 100 µM (inactive)
GI50 (LXFL 529): > 100 µM (inactive)
GI50 (U-251): > 100 µM (inactive)
GI50 (OVCAR-5): > 100 µM (inactive)
GI50 (HT-29): > 100 µM (inactive)
GI50 (UACC-62): > 100 µM (inactive)
GI50 (HCT-15): > 100 µM
GI50 (M19-MEL): > 100 µM (inactive)
GI50 (DMS-114): > 100 µM (inactive)
GI50 (786-0): > 100 µM (inactive)
GI50 (HCT-116): > 100 µM (inactive)
GI50 (HOP-92): > 100 µM (inactive)
GI50 (SW-620): > 100 µM (inactive)
GI50 (SK-OV-3): > 100 µM (inactive)
GI50 (NCI-H522): > 100 µM (inactive)
GI50 (HOP-62): > 100 µM (inactive)
GI50 (XF498): > 100 µM (inactive)
GI50 (OVCAR-8): > 100 µM (inactive)
GI50 (SF-295): > 100 µM (inactive)
GI50 (SNB-75): > 100 µM (inactive)
GI50 (NCI-H23): > 100 µM (inactive)
GI50 (NCI-H226): > 100 µM (inactive)
GI50 (RXF 393): > 100 µM (inactive)
GI50 (OVCAR-3): > 100 µM (inactive)
GI50 (HOP-18): > 100 µM (inactive)
GI50 (IGROV-1): > 100 µM (inactive)
GI50 (DLD-1): > 100 µM (inactive)
GI50 (HL-60): > 100 µM (inactive)
